Reference: patent publication US9939427B2, “Method for evaluating the scent performance of perfumes or perfume mixtures” (Symrise AG, priority 2013, dated 2018)
“Also recorded” adds a separate entry of the source.

What was measured:
OR52B4 = biological target: T1, OR52B4 (Homo sapiens, UniProt Q8NGK2); test: Ca-imaging of OR52B4-transfected HEK293 cells; type: cell-based; design: key: ▪: 18 olfactory receptors responded to 32 odorants in related with specific anosmia; settings: individual odorant 200 μM, significant response p<0.05
T1 construct: specific primers, which amplify the complete open reading frame; expressed in transfected cells; host or cells: HEK293
T1 sequence (Q8NGK2 1-314): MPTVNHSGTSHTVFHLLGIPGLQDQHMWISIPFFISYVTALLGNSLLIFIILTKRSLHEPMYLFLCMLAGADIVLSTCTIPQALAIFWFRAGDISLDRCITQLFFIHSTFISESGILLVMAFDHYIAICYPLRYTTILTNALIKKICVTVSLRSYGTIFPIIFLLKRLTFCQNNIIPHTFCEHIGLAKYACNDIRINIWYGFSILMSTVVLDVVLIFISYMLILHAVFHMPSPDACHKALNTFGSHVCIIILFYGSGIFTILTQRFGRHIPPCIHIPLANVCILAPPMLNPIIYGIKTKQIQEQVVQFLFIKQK
Procedure: (§1) HEK293 cells were cultivated in Petri dishes (Ø35 mm) as previously described (Benbernou et al. 2007). We grow up HEK293 cells in culture medium containing standard DMEM with 10% heat-inactivated fetal bovine serum, 2 mM L-glutamine, 100 units/ml penicillin, and 100 units/ml streptomycin in a humidified atmosphere (37° C., 5% CO2). After 2-3 days, the transfection process was carried out, whereby the cell culture was 70-80% confluent. The calciumphosphate method was applied to transfect DNA plasmid transiently in HEK293 cells in case of Ca-imaging method.
(§2) Calcium cations and phosphate anions created crystal precipitations coupled with DNA which could invade into the cells through endocytosis. Cells were transiently transfected with plasmid DNA which consists of pCI expression vector and PCR-amplified full-length cDNA of olfactory receptors candidates, and also Gα15, RTP1, Myr-Ric8A, HSC70, and m-Cherry as cofactors. The precipitation could be created after 15-20 min, with dropping the transfection solution on HEK293 cells. Before measuring by Ca-imaging cells were incubated 48-60 hours at 370 C, 5% CO2. Cationic liposome-mediated transfection method was applied to transfect DNA plasmid transiently in HANA3A cells in case of CRE-Luciferase and CRE-SEAP assays.
(§3) Calcium imaging of the transfected HEK293 cells was done by using chambers determinate an inverted microscope (Olympus; IX70) using a 10× objective (CPIanFL N Olympus). Fluorescence emission was determined every 4 s by using a CCD camera (Charge Coupled Device, C9100 Hamamatsu). The capillary tube which was responsible to supply odorants was generated closely above the cells. The columns filled with odorants, DMSO and ATP. Odorants were manually monitored to drop each 4-5 s to transfected cells. Solutions with drop wise form spread on HEK293 cells in 35 mm dishes.
In experiments, Fura-2 Acetoxymethylester (Fura-2/AM) was applied. The non-polar Fura2/AM is fluorescent but not yet calcium-sensitive. Once diffuses into cell plasma, Fura-2/AM is hydrolyzed to Fura-2 which is calcium-sensitive and functions as Ca2+ chelator. Regardless of the presence of calcium, Fura-2 emits at the wavelength of 510 nm. […] According to this feature, the analysis of 340/380 nm excitation ratio for Fura-2 allows to quantify intracellular calcium levels. […]
(§4) Ringer's solution was used for washing cells between measuring by two different odorants. Positive response was determined by the timing of the response, the strength of the response (more than twofold higher than the noise amplitude of the baseline), and the shape of the response curve (sharp rise in curve with gradual recovery). […]

OR4K2 = biological target: T2, OR4K2 (Homo sapiens, UniProt Q8NGD2); test: Ca-imaging of OR4K2-transfected HEK293 cells; type: cell-based; design: key to OR4K2 responded to odorant: ▪: 18 olfactory receptors responded to 32 odorants in related with specific anosmia; settings: HEK293 cells, individual odorant 200 μM, significant response p<0.05
T2 construct: specific primers, which amplify the complete open reading frame; expressed in transfected cells; host or cells: HEK293
T2 sequence (Q8NGD2 1-314): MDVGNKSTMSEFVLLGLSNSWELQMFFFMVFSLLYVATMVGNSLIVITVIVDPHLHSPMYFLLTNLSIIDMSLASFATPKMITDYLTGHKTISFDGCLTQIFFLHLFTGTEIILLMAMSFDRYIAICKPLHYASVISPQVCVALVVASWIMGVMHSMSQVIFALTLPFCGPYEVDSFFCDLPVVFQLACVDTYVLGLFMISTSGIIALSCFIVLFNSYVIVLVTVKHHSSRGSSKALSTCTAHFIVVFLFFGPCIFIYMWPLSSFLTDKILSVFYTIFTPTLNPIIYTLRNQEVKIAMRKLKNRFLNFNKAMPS
Procedure: as §1, §2, §3
(§5) In experiments, Fura-2 Acetoxymethylester (Fura-2/AM) was applied. The non-polar Fura2/AM is fluorescent but not yet calcium-sensitive. Once diffuses into cell plasma, Fura-2/AM is hydrolyzed to Fura-2 which is calcium-sensitive and functions as Ca2+ chelator. Regardless of the presence of calcium, Fura-2 emits at the wavelength of 510 nm. Once Fura-2 binds to free intracellular Ca2+ in cell plasma, its ratio of excitation at wavelengths of 340 nm and 380 nm is changed and correlated to the amount of intracellular Ca2+. According to this feature, the analysis of 340/380 nm excitation ratio for Fura-2 allows to quantify intracellular calcium levels.
(§6) In preparation for Ca-imaging measurements, transfected HEK293 cells were added 3 it Fura2/AM (3 μM) and incubated 30-45 min at 370 C, 5% CO2. After this step, experiments were carried out in a dark condition (Fura-2 is light-sensitive). After the incubation, medium of cell culture was replaced with 2 ml Ringer's solution.
(§7) Odorants were freshly prepared with DMSO as 1 M stocks solutions. Six mixtures (200 μM each chemical) were applied to cells sequentially (20 s each mixture/30 s Ringer). Those ORs tested with single odorants that had generated a response to odorant mixture group previously. Odorants were prepared in 100-200 μM concentration.
as §4

OR1B1 = biological target: T3, OR1B1 (Homo sapiens, UniProt Q8NGR6); test: Ca-imaging of OR1B1-transfected HEK293 cells; type: cell-based
T3 construct: specific primers, which amplify the complete open reading frame; expressed in transfected cells; host or cells: HEK293
T3 sequence (Q8NGR6 1-317): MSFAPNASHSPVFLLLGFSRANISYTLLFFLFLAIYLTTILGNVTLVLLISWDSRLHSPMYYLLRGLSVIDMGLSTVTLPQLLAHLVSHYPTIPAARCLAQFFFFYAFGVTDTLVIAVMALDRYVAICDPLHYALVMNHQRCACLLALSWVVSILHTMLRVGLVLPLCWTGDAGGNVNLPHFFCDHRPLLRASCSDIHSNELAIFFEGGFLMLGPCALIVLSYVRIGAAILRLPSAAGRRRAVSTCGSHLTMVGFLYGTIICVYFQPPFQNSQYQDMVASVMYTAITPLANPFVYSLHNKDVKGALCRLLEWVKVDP
Procedure: as §1, §2, §3, §5, §6, §7
(§8) Ringer's solution was used for washing cells between measuring by two different odorants. Positive response was determined by the timing of the response, the strength of the response (more than twofold higher than the noise amplitude of the baseline), and the shape of the response curve (sharp rise in curve with gradual recovery). The typical shape of response curves was established by observing responses to repeated stimulation with 200 μM of odorants. After testing with single odorants at 100 μM, stimulating odorants were often retested at 200 μM concentrations. To confirm the result of every receptor that produced a significant response curves, the experiment was repeated for twelve times. Finally, cells were exposed to ATP (0.25 mM) which could activate P2Y receptor channel and induce Ca2+ influx into cells. […]

OR1B1-688 = test: Ca-imaging of mutant OR1B1-688 in HEK293 cells; type: cell-based, human; settings: 200 μM, applied for 20 seconds
Excerpt: (§9) Mutations were introduced for OR1B1 and OR10Q1 by Overlap Extension PCR (OEP). […] Flanking primers in combination with internal primers provided mutated gene segments, Full length primers included EcoRI and NotI restriction sites for further cloning into pCI expression vector. Site-directed mutations were selected for base of minor allele frequency of nucleotide.
(§10) In mutagenesis by overlap extension PCR method, initial PCRs provided mutated gene segments, with overlapping complementary 3′ ends carrying desired point mutation that were then mixed and used as template for a subsequent PCR to generate the full-length product. Overlapping strands of these intermediate products hybridize at this 3′ region in a subsequent PCR and are extended to generate the full-length product amplified by flanking primers; this shown in FIG. 2. […]
(§11) Calcium imaging of the transfected HEK293 cells was done by using chambers determinate an inverted microscope (Olympus; IX70) using a 10× objective (CPIanFL N Olympus). Fluorescence emission was determined every 4 s by using a CCD camera (Charge Coupled Device, C9100 Hamamatsu). […] Odorants were manually monitored to drop each 4-5 s to transfected cells. […]
(§12) In experiments, Fura-2 Acetoxymethylester (Fura-2/AM) was applied. […] According to this feature, the analysis of 340/380 nm excitation ratio for Fura-2 allows to quantify intracellular calcium levels. […]

[1] = test system: HEK293 cells transfected with all cofactors and pCI plasmids without ORs; test: Ca-imaging of control HEK293 cells without OR; type: cell-based; settings: 200 μM, steroid comparison
Procedure: as §1, §2, §3, §5, §6, §7, §8

OR1B1-574 = biological target: T4, OR1B1-574 (Homo sapiens, UniProt Q8NGR6); test: Ca-imaging of mutant OR1B1-574 in HEK293 cells; type: cell-based; settings: 200 μM, applied for 20 seconds
T4 construct: Rho-tag (N); expressed in transfected cells; host or cells: HEK293
Excerpt: as §9, §10, §11, §12

OR1B1-789 = biological target: T5, OR1B1-789 (Homo sapiens, UniProt Q8NGR6, C262W); test: Ca-imaging of mutant OR1B1-789 in HEK293 cells; type: cell-based; settings: 200 μM, applied for 20 seconds
T5 construct: Full length primers included EcoRI and NotI restriction sites for further cloning into pCI expression vector; Rho-tag (N); expressed in transfected cells; host or cells: HEK293
T5 sequence (Q8NGR6 whole entry C262W): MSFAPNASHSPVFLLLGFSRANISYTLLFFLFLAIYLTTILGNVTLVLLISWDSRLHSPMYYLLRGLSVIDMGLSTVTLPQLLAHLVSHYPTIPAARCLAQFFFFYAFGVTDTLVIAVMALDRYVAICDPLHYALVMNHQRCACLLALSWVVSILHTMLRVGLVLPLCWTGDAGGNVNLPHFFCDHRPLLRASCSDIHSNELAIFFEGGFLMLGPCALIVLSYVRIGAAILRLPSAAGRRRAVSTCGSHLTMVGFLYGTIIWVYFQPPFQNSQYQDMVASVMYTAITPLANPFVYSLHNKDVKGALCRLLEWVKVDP
Excerpt: as §9, §10, §11, §12

OR4P4 = biological target: T6, OR4P4 (Homo sapiens, UniProt Q8NGL7); test: Ca-imaging of OR4P4-transfected HEK293 cells; type: cell-based; design: key to OR4P4 responded to odorant: ▪: 18 olfactory receptors responded to 32 odorants in related with specific anosmia
T6 construct: specific primers, which amplify the complete open reading frame; expressed in transfected cells; host or cells: HEK293
T6 sequence (Q8NGL7 1-312): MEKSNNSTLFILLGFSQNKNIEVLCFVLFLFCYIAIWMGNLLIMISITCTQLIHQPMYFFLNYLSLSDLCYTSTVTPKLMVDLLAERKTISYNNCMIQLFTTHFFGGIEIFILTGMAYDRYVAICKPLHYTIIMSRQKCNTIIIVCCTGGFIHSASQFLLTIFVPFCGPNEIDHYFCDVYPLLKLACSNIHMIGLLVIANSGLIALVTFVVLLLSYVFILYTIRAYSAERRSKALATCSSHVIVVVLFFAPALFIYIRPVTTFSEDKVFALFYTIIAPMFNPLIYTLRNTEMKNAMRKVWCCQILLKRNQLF
Procedure: as §1
as §2, with “Cationic liposome-mediated transfection method was applied to transfect DNA plasmid transiently in HANA3A cells in case of CRE-Luciferase and CRE-SEAP assays.” left out
as §11, §12, §4

OR4K5 = biological target: T7, OR4K5 (Homo sapiens, UniProt Q8NGD3); test: Ca-imaging of OR4K5-transfected HEK293 cells; type: cell-based; design: key to OR4K5 responded to odorant: ▪: 18 olfactory receptors responded to 32 odorants in related with specific anosmia; settings: HEK293 cells, individual odorant 200 μM, significant response p<0.05
T7 construct: specific primers, which amplify the complete open reading frame; expressed in transfected cells; host or cells: HEK293
T7 sequence (Q8NGD3 1-323): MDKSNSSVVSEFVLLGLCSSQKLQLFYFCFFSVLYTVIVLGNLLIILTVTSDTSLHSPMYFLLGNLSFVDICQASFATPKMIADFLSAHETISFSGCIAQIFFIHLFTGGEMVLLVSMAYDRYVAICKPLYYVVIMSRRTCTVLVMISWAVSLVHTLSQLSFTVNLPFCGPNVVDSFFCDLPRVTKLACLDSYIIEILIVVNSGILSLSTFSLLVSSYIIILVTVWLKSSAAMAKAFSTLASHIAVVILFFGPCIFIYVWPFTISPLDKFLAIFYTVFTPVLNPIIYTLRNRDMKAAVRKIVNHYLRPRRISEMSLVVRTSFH
Procedure: as §1
as §2, with “Cationic liposome-mediated transfection method was applied to transfect DNA plasmid transiently in HANA3A cells in case of CRE-Luciferase and CRE-SEAP assays.” left out
as §11, §12, §4

## CC/C(=C\CC1CC=C(C)C1(C)C)CO (stereo not shown) [Sandranol]
OR52B4
  OR52B4 responded to odorant: ▪

## C=CC(=O)CCCCC [1-Octan-3-One, 1-Octen-3-one]
OR52B4
  OR52B4 responded to odorant: ▪

## CC(C)C=O [Isobutyr aldehyde, Isobutyraldehyde]
OR4K2
  OR4K2 responded to odorant: ▪

## CC1CCCC2(C)CCCCC12O (stereo not shown) [Geosmin]
OR52B4
  OR52B4 responded to odorant: ▪

## C[C@]12CC[C@H]3[C@@H](CCC4=CC(=O)CC[C@@]43C)[C@@H]1CC[C@@H]2O [testosterone]
OR1B1; 200 μM, approximately 2000 cells in three times of measuring, steroid comparison
  Number of cell responses of OR1B1 (FIG. 8): 12
OR1B1; Ca-imaging, single odorants 200 μM
  Response of OR1B1 to odorant, in words: responded
OR1B1-688
  Response of OR1B1-688 in comparison to OR1B1 WT: no significantly different responses; also recorded: did not show any significant difference
[1]
  Number of cell responses in controls (FIG. 8, 11, 12): 1
OR1B1-574
  Response of OR1B1-574 in comparison to OR1B1 WT: not able to reproduce responses
OR1B1-789
  Response of OR1B1-789 in comparison to OR1B1 WT: no significantly different responses; also recorded: did not show any significant difference

## Globalide
OR4P4; HEK293 cells, individual odorant 200 μM, significant response p<0.05
  OR4P4 responded to odorant: ▪
OR4P4; single odorants 200 μM
  Response of OR4P4 to odorant, in words: responded

## CO[C@]1(C)CC[C@@]23C[C@@H]1C(C)(C)[C@@H]2CC[C@H]3C [Cedramber]
OR4K5
  OR4K5 responded to odorant: ▪
